Results: patent publication US20170266156A1, “METHOD FOR PREVENTING CANCER BY USING PHTHALIDES” (National Sun Yat-sen University, priority 2016, published 2017)

Target: hemoglobin (Hb) (Homo sapiens, UniProt P68871+P69905)
Assay: oxygen equilibrium curves / P50 of hemoglobin treated with 2,3-BPG and phthalide compounds
Assay type: biochemical
Conditions: for effect of phthalide compound together with 2,3-BPG (lowering the oxygen affinity of hemoglobin): FIG. 1
From the text: The oxygen affinity of hemoglobin is commonly characterized by P50 value. The P50 value is the required oxygen partial pressure for hemoglobin to achieve 50% oxygen saturation.

Sequence of hemoglobin (Hb) (P69905 2-142 limits assumed): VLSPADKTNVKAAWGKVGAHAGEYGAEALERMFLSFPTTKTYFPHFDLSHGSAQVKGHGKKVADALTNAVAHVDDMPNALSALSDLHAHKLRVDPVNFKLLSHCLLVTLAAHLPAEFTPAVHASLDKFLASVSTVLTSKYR
Sequence of hemoglobin (Hb) (P68871 2-147 limits assumed): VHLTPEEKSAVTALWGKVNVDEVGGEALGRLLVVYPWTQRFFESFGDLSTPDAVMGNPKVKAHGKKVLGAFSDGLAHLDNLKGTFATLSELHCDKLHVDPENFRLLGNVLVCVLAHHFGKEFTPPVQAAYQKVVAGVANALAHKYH

SMILES	effect of phthalide compound together with 2,3-BPG (lowering the oxygen affinity of hemoglobin)	oxygen release efficiency of hemoglobin (1.2 mM 2,3-BPG, PO2 of 20 mmHg)	oxygen saturation fraction of hemoglobin (1.2 mM 2,3-BPG, PO2 of 20 mmHg)	oxygen saturation fraction of hemoglobin (Hb) (12 mM 2,3-BPG, fixed oxygen partial pressure of 20 mmHg, 80% where no 2,3-BPG is present)	oxygen release efficiency (12 mM 2,3-BPG, oxygen partial pressure 20 mmHg, 20% without 2,3-BPG)	change of P50 value with 2,3-BPG concentration (FIG. 2, various 2,3-BPG concentrations up to 12.0 mM)	P50 value (approximately 4 mM 2,3-BPG, no phthalide compound)
CCC/C=C1\OC(=O)C2=C1CCC=C2 [Z-ligustilide]	synergistic effect						
CCC/C=C1\OC(=O)C2=C1CC[C@@H](O)[C@@H]2O [senkyunolide I]	synergistic effect						
O=C(O)C(COP(=O)(O)O)OP(=O)(O)O (centres unmarked) [2,3-BPG, 2,3-bisphosphorglycerate]		40%	approximately 60%	35%	65%	higher	18.8 mmHg
